Three compounds from patent US6265390A, “Methods for expressing nucleic acid sequences using nucleic acid constructs comprising hypoxia response elements” (Oxford Biomedica (UK) Limited, priority 1994, dated 2001) can be followed below.

Each structure is given as a SMILES string.

Assay [1] deals with 9-3C cells (HT1080 transfected with cytosine deaminase under 9-27 promoter with 3 copies of P18). The assay is described as follows: Hypoxia-induced pro-drug sensitisation, 9-3C cells. The class given is cell-based. As to conditions: 16 hours hypoxic exposure, 24 hours drug, 96 hour growth delay. The procedure: The PGK-1 hypoxia response element was evaluated within the context of the PGK-1 gene promoter (M3), the 9-27 gene promoter (9-3C) and the thymidine kinase gene promoter (sTK5).
The constructs were similar to those described in Example 7. The promoters and PGK-1 hypoxia response elements were placed upstream of genes encoding the endothelial CD2 surface protein and the negative selectable marker cytosine deaminase. The 9-27 and thymidine kinase promoters were each used with 3 copies of the P18 PGK-1 element and the PGK-1 gene promoter was used with 3 copies of the P24 PGK-1 element.
(§1) Transfected cells (9-3C and M3) as described in Example 9 were tested for sensitivity to 5-FC. Cells were subjected to hypoxic exposure (16 hours), followed by exposure to 5-FC or 5-FU (24 hours), followed by a 96 hour growth delay.

The test system of assay [2] is M3 cells (HT1080 transfected with cytosine deaminase under PGK-1 promoter with 3 copies of P24). The assay is described as follows: Hypoxia-induced pro-drug sensitisation, M3 cells. In kind it is cell-based. As to conditions: 16 hours hypoxic exposure, 24 hours drug, 96 hour growth delay.
Description: The PGK-1 hypoxia response element was evaluated within the context of the PGK-1 gene promoter (M3), the 9-27 gene promoter (9-3C) and the thymidine kinase gene promoter (sTK5). […] The promoters and PGK-1 hypoxia response elements were placed upstream of genes encoding the endothelial CD2 surface protein and the negative selectable marker cytosine deaminase. The 9-27 and thymidine kinase promoters were each used with 3 copies of the P18 PGK-1 element and the PGK-1 gene promoter was used with 3 copies of the P24 PGK-1 element. Transfected cells (9-3C and M3) as described in Example 9 were tested for sensitivity to 5-FC. Cells were subjected to hypoxic exposure (16 hours), followed by exposure to 5-FC or 5-FU (24 hours), followed by a 96 hour growth delay.
Assay [3] relates to MCF-7(-4) cells transfected with thymidine phosphorylase gene. The assay is described as follows: Drug sensitivity of thymidine phosphorylase transfectant -4. Particulars: survival curve, FIG. 3. The class given is cell-based, human. An excerpt:
(§2) Human breast cancer cells of the cell line MCF-7 were transfected with a gene for thymidine phosphorylase. […] The gene is suitable for linking up with hypoxically-inducible promoters/enhancers.
(§3) Results of drug sensitivity experiments are shown in FIGS. 3-7. -7, -4, -12, +4 and +16 are all derivatives of MCF-7 which have been transfected with the thymidine phosphorylase gene.
(§4) Note that there is a log scale and therefore the IC50 (the concentration of drug required to inhibit growth by 50%) is more than 100 times lower for the transfectants -12 and -4. Therefore, the expression of one gene at a higher level can make these cells 100 times more sensitive to chemotherapy. Clearly there is variation depending on the level of expression and therefore we want to be able to switch on as high as possible. […] This means that it is the activation step that is important rather than downstream events.

In assay [4] the test system is control (Wt) non-transfected HT1080 cells and transfectant cells (9-3C, M3). Description: Drug sensitivity after hypoxic or normoxic treatment, control and transfectants. In kind it is cell-based. Particulars: 16 hours exposure, 24 hours drug, 96 hour growth delay. On the procedure: as §1
Assay [5] has as its system MCF-7 wild-type and thymidine phosphorylase transfectant clones. The assay is described as follows: Drug sensitivity of clones -4, -7, -12, -16, +4 compared with wild type. The class given is cell-based, human. Particulars: FIG. 6.
Description: as §2, §3, §4

The test system of assay [6] is endogenous mouse LDH-A gene expression in L cells. Description: RNA analysis of endogenous LDH-A gene expression. In kind it is cell-based. Particulars: 100 μM, 16 hours, hypoxia 1% O2. On the procedure:
(§5) The cell lines used were HepG2 (human hepatoma), HeLa (human cervical carcinoma) and L cells (mouse fibroblast) grown in minimal essential medium, with Earle's salts, supplemented with fetal bovine serum (10%), glutamine (2 mM), penicillin (50 units/ml) and streptomycin sulfate (50 μg/ml). For assay of endogenous gene expression, and for preparation of nuclear extracts, cells were grown to approximately 70% confluence. […]
(§6) RNA was extracted, analysed by RNase protection, and quantitated as previously described (Pugh et al 1991). […]
(§7) For assay of endogenous PGK-1 gene expression 50 μg of RNA extracted from HepG2 cells was hybridised with a riboprobe which consisted of 121 bp from the 5' end of the exon 3 of the human PGK-1 gene, together with 68 bp of adjacent intron (obtained by PCR of genomic DNA and cloning by standard methods). […] In these experiments a small quantity (0.5 μg) of RNA extracted from K562 cells (a human […] cell line which expresses a globin mRNA abundantly) was added to each sample before hybridisation, and the samples were probed concurrently with the α97 probe in addition to the PGK-1 or LDH-A probe. […]

The test system of assay [7] is endogenous human PGK-1 gene expression in HepG2 cells. Description: RNA analysis of endogenous PGK-1 gene expression. Particulars: 100 μM, 16 hours, hypoxia 1% O2. In kind it is cell-based. On the procedure: as §5, §6, §7

For the compound `Nc1nc(=O)[nH]cc1F` [5-FC, 5-fluorocytosine], the sensitivity post-hypoxia entry in assay [1] and in assay [2] was “significantly more sensitive” in each case.
Regarding `O=c1[nH]cc(F)c(=O)[nH]1` [5FU, 5-fluorouracil], in assay [3], the “difference in sensitivity between WT and transfectant” value is given as “relatively little difference”. Also, the “difference in sensitivity following hypoxic or normoxic treatment” value in assay [4] is listed as “no significant difference”. In assay [5], the “difference in sensitivity of the cells” value is recorded as “very little difference”.
Take `C[C@@H]1C[C@@H]([C@H](O)CC2CC(=O)NC(=O)C2)C(=O)[C@@H](C)C1` [cycloheximide]: the “effect on hypoxic induction of gene expression” value in assay [6] and in assay [7] was “abrogated the response to hypoxia” each time.
